Test results as given in patent publication US8647828B2, “Intracellular targeting of molecules via syndecan-4” (Szilak Laboratories Bioinformatics & Molecule-Design Ltd., priority 2007, dated 2014).
Like-named read-outs stand apart in the source and are kept apart here.

System: nucleus of the cell
Format: cell-based
Conditions: peptide fused to GFP reporter

Row | Substance | localization of GFP reporter chimera in the cell | localization of GFP reporter chimera in the cell (listed as GFP-Ser179Glu mutant chimera)
1 | MYRMKKKDEGSYDL (MYRMKKKDEGSYDLGKKPIYKKAPTNEFYA; from the cytoplasmic domain of syndecan-4 Ser11 of the sequence equals position Ser179 of the full length protein) [SEQ ID NO: 1] | homogenously dispersed in the cells | 
2 | SEQ ID NO: 2 (MYRMKKKDEGEYDLGKKPIYKKAPTNEFYA; from the cytoplasmic domain of syndecan-4 position Ser179 mutated into Glu) | accumulation of the reporter was detected in the nuclei | nuclear accumulation
